Laboratory results reported in US10344060B2 (priority 2013, dated 2019).

target: hNav1.7 (Homo sapiens, UniProt Q15858); test: cell-based; format: cell-based; conditions: not given
Sequence (Q15858 whole entry): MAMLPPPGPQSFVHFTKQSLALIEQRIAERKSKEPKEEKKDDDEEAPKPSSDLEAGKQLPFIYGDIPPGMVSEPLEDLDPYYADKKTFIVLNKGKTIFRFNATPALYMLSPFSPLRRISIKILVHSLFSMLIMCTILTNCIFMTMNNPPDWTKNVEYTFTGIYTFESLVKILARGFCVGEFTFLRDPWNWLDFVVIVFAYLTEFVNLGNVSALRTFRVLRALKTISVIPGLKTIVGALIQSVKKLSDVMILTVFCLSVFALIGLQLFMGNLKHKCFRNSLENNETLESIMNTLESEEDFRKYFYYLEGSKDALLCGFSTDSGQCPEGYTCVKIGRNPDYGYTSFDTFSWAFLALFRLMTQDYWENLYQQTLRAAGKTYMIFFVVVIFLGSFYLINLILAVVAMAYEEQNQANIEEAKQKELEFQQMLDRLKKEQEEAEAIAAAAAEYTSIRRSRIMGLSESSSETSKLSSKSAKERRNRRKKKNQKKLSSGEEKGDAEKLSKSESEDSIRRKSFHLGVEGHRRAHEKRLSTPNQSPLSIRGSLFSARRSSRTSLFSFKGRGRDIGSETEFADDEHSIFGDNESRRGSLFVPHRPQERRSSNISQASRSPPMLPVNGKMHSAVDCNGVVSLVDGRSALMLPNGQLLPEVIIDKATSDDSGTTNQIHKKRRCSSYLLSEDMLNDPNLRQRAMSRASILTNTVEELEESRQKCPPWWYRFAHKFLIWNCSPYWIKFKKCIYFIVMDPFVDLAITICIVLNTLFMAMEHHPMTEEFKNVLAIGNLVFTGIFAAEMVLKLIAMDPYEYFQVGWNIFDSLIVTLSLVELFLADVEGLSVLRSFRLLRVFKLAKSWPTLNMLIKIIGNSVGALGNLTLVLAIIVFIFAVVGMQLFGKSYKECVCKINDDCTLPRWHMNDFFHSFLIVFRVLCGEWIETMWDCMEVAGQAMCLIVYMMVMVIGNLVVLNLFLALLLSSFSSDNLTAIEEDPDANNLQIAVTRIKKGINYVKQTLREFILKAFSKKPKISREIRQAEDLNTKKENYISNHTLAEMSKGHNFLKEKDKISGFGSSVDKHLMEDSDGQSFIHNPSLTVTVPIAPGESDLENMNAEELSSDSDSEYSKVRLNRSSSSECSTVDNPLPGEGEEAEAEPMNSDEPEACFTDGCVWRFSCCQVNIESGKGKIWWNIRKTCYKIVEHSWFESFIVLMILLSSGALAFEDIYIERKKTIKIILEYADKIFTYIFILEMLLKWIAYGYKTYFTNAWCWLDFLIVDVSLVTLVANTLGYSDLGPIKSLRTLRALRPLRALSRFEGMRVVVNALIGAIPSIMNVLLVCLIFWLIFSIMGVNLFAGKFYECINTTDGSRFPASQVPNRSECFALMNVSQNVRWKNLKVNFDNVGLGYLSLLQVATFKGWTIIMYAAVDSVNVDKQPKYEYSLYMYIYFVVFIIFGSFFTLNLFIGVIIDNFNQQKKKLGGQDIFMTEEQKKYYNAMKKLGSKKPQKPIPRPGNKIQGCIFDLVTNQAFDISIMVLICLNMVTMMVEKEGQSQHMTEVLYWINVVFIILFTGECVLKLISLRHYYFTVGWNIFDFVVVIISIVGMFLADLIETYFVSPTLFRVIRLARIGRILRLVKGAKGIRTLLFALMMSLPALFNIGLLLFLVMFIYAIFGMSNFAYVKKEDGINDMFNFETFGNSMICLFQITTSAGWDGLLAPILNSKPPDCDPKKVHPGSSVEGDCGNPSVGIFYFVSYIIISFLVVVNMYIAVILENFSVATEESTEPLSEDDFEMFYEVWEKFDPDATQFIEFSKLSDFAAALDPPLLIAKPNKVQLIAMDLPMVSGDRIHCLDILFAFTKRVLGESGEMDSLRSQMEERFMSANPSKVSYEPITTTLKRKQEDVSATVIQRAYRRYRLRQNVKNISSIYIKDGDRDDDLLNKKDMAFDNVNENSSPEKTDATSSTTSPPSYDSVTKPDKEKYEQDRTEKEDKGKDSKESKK

Q: How did the Wash out turn out when “[Phe6,Atz(500 Da EtO-PEG*-[Phe6,Atz13*]GpTx-1(1-34)1)13]GpTx-1(1-34) [Homodimeric Conjugate No. 4]” was run?
A: Yes

same assay, conditions: Table 12; PatchXpress, tonic block; read-out: PX hNav1.7 Tonic IC50

Q: Which IC50 does the source give for C#CC[C@@H]1NC(=O)[C@@H]2CSSC[C@H](NC(=O)[C@H](Cc3ccc(O)cc3)NC(=O)[C@@H](N)CC#N)C(=O)N[C@@H](CCC(N)=O)C(=O)N[C@@H](CCCCN)C(=O)N[C@@H](Cc3c[nH]c4ccccc34)C(=O)N[C@@H](CCCC)C(=O)N[C@@H](Cc3c[nH]c4ccccc34)C(=O)N[C@@H]([C@@H](C)O)C(=O)N[C@H]3CSSC[C@H](NC(=O)[C@H](CCCNC(=N)N)NC(=O)[C@H](CC(C)C)NC(=O)CNC1=O)C(=O)N[C@@H](CCCCN)C(=O)N[C@@H](CC(C)C)C(=O)N[C@@H](Cc1c[nH]c4c(Br)cccc14)C(=O)N[C@H](C(=O)N[C@@H](CCCNC(=N)N)C(=O)N[C@@H](CCCCN)C(=O)N[C@@H](CCC(=O)O)C(=O)N[C@H](C(N)=O)[C@@H](C)CC)CSSC[C@H](NC(=O)[C@H](C)NC(=O)[C@H](CCCNC(=N)N)NC(=O)[C@H](CCCCN)NC(=O)[C@H](CO)NC(=O)[C@H](CC(=O)O)NC3=O)C(=O)N2 [compound 875] here?
A: 25.3 nM

Q: Which IC50 does the source give for C#CC[C@@H]1NC(=O)[C@@H]2CSSC[C@H](NC(=O)[C@H](Cc3ccc(O)cc3)NC(=O)[C@@H](N)CC#N)C(=O)N[C@@H](CCC(N)=O)C(=O)N[C@@H](CCCCN)C(=O)N[C@@H](Cc3c[nH]c4ccccc34)C(=O)N[C@@H](CCCC)C(=O)N[C@@H](Cc3c[nH]c4ccccc34)C(=O)N[C@@H]([C@@H](C)O)C(=O)N[C@H]3CSSC[C@H](NC(=O)[C@H](CCCNC(=N)N)NC(=O)[C@H](CC(C)C)NC(=O)CNC1=O)C(=O)N[C@@H](CCCCN)C(=O)N[C@@H](CC(C)C)C(=O)N[C@@H](Cc1c[nH]c4cc(Br)ccc14)C(=O)N[C@H](C(=O)N[C@@H](CCCNC(=N)N)C(=O)N[C@@H](CCCCN)C(=O)N[C@@H](CCC(=O)O)C(=O)N[C@H](C(N)=O)[C@@H](C)CC)CSSC[C@H](NC(=O)[C@H](C)NC(=O)[C@H](CCCNC(=N)N)NC(=O)[C@H](CCCCN)NC(=O)[C@H](CO)NC(=O)[C@H](CC(=O)O)NC3=O)C(=O)N2 [compound 873] here?
A: 8.47 nM

Q: C#CC[C@H](N)C(=O)N[C@@H](Cc1ccc(O)cc1)C(=O)N[C@H]1CSSC[C@@H]2NC(=O)[C@@H]3CSSC[C@@H](C(=O)N[C@@H](CCCNC(=N)N)C(=O)N[C@@H](CCCCN)C(=O)N[C@@H](CCCC)C(=O)N[C@H](C(N)=O)[C@@H](C)CC)NC(=O)[C@H](Cc4c[nH]c5ccccc45)NC(=O)[C@H](CC(C)C)NC(=O)[C@H](CCCCN)NC(=O)[C@H](CSSC[C@H](NC(=O)[C@H]([C@@H](C)O)NC(=O)[C@H](Cc4c[nH]c5ccccc45)NC(=O)[C@H](CCCC)NC(=O)[C@H](Cc4c[nH]c5ccccc45)NC(=O)[C@H](CCCCN)NC(=O)[C@H](CCC(N)=O)NC1=O)C(=O)N[C@@H](CC(=O)O)C(=O)N[C@@H](CO)C(=O)N[C@@H](CCCCN)C(=O)N[C@@H](CCCNC(=N)N)C(=O)N[C@@H](C)C(=O)N3)NC(=O)[C@H](CCCNC(=N)N)NC(=O)[C@H](CC(C)C)NC(=O)CNC(=O)[C@H](CCC(=O)O)NC2=O [compound 664] was tested. Which IC50 did it give?
A: 0.339 nM

Q: C#CC[C@H](N)C(=O)N[C@@H](Cc1ccc(O)cc1)C(=O)N[C@H]1CSSC[C@@H]2NC(=O)[C@@H]3CSSC[C@@H](C(=O)N[C@@H](CCCNC(=N)N)C(=O)N[C@@H](CCCCN)C(=O)N[C@@H](CCC(=O)O)C(=O)N[C@H](C(N)=O)[C@@H](C)CC)NC(=O)[C@H](Cc4c[nH]c5ccccc45)NC(=O)[C@H](CC(C)C)NC(=O)[C@H](CCCCN)NC(=O)[C@H](CSSC[C@H](NC(=O)[C@H]([C@@H](C)O)NC(=O)[C@H](Cc4c[nH]c5ccccc45)NC(=O)[C@H](CCCC)NC(=O)[C@H](Cc4c[nH]c5ccccc45)NC(=O)[C@H](CCCCN)NC(=O)[C@H](CCC(N)=O)NC1=O)C(=O)N[C@@H](CC(=O)O)C(=O)N[C@@H](CO)C(=O)N[C@@H](CCCCN)C(=O)N[C@@H](CCCNC(=N)N)C(=O)N[C@@H](C)C(=O)N3)NC(=O)[C@H](CCCNC(=N)N)NC(=O)[C@H](CCCNC(=N)N)NC(=O)CNC(=O)[C@H](CCC(=O)O)NC2=O [compound 705] was tested. Which IC50 did it give?
A: > 1000 nM

same assay, conditions: ratio of PX tonic IC50 values; Table 11

Q: Which Nav1.4/Nav1.7 does the source give for CCCC[C@@H]1NC(=O)[C@H](Cc2c[nH]c3ccccc23)NC(=O)[C@H](CCCCN)NC(=O)[C@H](CCC(N)=O)NC(=O)[C@@H](NC(=O)[C@H](Cc2ccc(O)cc2)NC(=O)[C@@H](N)CCc2ccccc2)CSSC[C@@H]2NC(=O)[C@@H]3CSSC[C@@H](C(=O)N[C@@H](CCCNC(=N)N)C(=O)N[C@@H](CCCCN)C(=O)N[C@H](C(=O)N[C@H](C(N)=O)[C@@H](C)CC)[C@@H](C)CC)NC(=O)[C@H](Cc4c[nH]c5ccccc45)NC(=O)[C@H](CC(C)C)NC(=O)[C@H](CCCCN)NC(=O)[C@H](CSSC[C@H](NC(=O)[C@H]([C@@H](C)O)NC(=O)[C@H](Cc4c[nH]c5ccccc45)NC1=O)C(=O)N[C@@H](CC(=O)O)C(=O)N[C@@H](CO)C(=O)N[C@@H](CCCCN)C(=O)N[C@@H](CCCNC(=N)N)C(=O)N[C@@H](C)C(=O)N3)NC(=O)[C@H](CCCNC(=N)N)NC(=O)[C@H](CC(C)C)NC(=O)CNC(=O)[C@H](CCC(=O)O)NC2=O [compound 379] here?
A: 10

Q: And the Nav1.5/Nav1.7?
A: 916

Q: What does the source list for CCCC[C@@H]1NC(=O)[C@H](Cc2c[nH]c3ccccc23)NC(=O)[C@H](CCCCN)NC(=O)[C@H](CCC(N)=O)NC(=O)[C@@H](NC(=O)[C@H](Cc2ccc(O)cc2)NC(=O)[C@@H](C)N)CSSC[C@@H]2NC(=O)[C@@H]3CSSC[C@@H](C(=O)N[C@@H](CCCNC(=N)N)C(=O)N[C@@H](CCCCN)C(=O)N[C@H](C(=O)N[C@H](C(N)=O)[C@@H](C)CC)[C@@H](C)CC)NC(=O)[C@H](Cc4c[nH]c5ccccc45)NC(=O)[C@H](CC(C)C)NC(=O)[C@H](CCCCN)NC(=O)[C@H](CSSC[C@H](NC(=O)[C@H]([C@@H](C)O)NC(=O)[C@H](Cc4c[nH]c5ccccc45)NC1=O)C(=O)N[C@@H](CC(=O)O)C(=O)N[C@@H](CO)C(=O)N[C@@H](CCCCN)C(=O)N[C@@H](CCCNC(=N)N)C(=O)N[C@@H](C)C(=O)N3)NC(=O)[C@H](CCCNC(=N)N)NC(=O)[C@H](CC(C)C)NC(=O)CNC(=O)[C@H](CCC(=O)O)NC2=O [compound 372]?
A: Nav1.4/Nav1.7: 5; Nav1.5/Nav1.7: 764

Q: With CCCC[C@@H]1NC(=O)[C@H](Cc2c[nH]c3ccccc23)NC(=O)[C@H](CCCCN)NC(=O)[C@H](CCC(N)=O)NC(=O)[C@@H](NC(=O)[C@H](Cc2ccc(O)cc2)NC(=O)[C@@H](N)CC(C)C)CSSC[C@@H]2NC(=O)[C@@H]3CSSC[C@@H](C(=O)N[C@@H](CCCNC(=N)N)C(=O)N[C@@H](CCCCN)C(=O)N[C@@H](CCC(=O)O)C(=O)N[C@H](C(N)=O)[C@@H](C)CC)NC(=O)[C@H](Cc4c[nH]c5ccccc45)NC(=O)[C@H](CC(C)C)NC(=O)[C@H](CCCCN)NC(=O)[C@H](CSSC[C@H](NC(=O)[C@H]([C@@H](C)O)NC(=O)[C@H](Cc4c[nH]c5ccccc45)NC1=O)C(=O)N[C@@H](CC(=O)O)C(=O)N[C@@H](CO)C(=O)N[C@@H](CCCCN)C(=O)N[C@@H](CCCNC(=N)N)C(=O)N[C@@H](C)C(=O)N3)NC(=O)[C@H](CCCNC(=N)N)NC(=O)[C@H](CC(C)C)NC(=O)CNC(=O)[C@H](CCCCNC(=O)CCOCCOCCOCCOCCOCCOCCOCCOCCOCCOCCOCCOCCN)NC2=O [compound 462] as the molecule, how does the Nav1.4/Nav1.7 read?
A: 20

Q: Which Nav1.4/Nav1.7 does the source give for CCCC[C@@H]1NC(=O)[C@H](Cc2c[nH]c3ccccc23)NC(=O)[C@H](CCCCN)NC(=O)[C@H](CCC(N)=O)NC(=O)[C@@H](NC(=O)[C@H](Cc2ccc(O)cc2)NC(=O)[C@H](CC(C)C)NC)CSSC[C@@H]2NC(=O)[C@@H]3CSSC[C@@H](C(=O)N[C@@H](CCCNC(=N)N)C(=O)N[C@@H](CCCCN)C(=O)N[C@@H](CCC(=O)O)C(=O)N[C@H](C(N)=O)[C@@H](C)CC)NC(=O)[C@H](Cc4c[nH]c5ccccc45)NC(=O)[C@H](CC(C)C)NC(=O)[C@H](CCCCN)NC(=O)[C@H](CSSC[C@H](NC(=O)[C@H]([C@@H](C)O)NC(=O)[C@H](Cc4c[nH]c5ccccc45)NC1=O)C(=O)N[C@@H](CC(=O)O)C(=O)N[C@@H](CO)C(=O)N[C@@H](CCCCN)C(=O)N[C@@H](CCCNC(=N)N)C(=O)N[C@@H](C)C(=O)N3)NC(=O)[C@H](CCCNC(=N)N)NC(=O)[C@H](CC(C)C)NC(=O)CNC(=O)[C@H](CCCCNC(=O)CCOCCOCCOCCOCCOCCOCCOCCOCCOCCOCCOCCOCCN)NC2=O [compound 466] here?
A: 19

Q: What does the source list for CC[C@H](C)[C@H](NC(=O)[C@H](Cc1ccc(O)cc1)NC(=O)[C@H](CCCCN)NC(=O)[C@H](CCCNC(=N)N)NC(=O)[C@@H]1CSSC[C@@H]2NC(=O)[C@H](C)NC(=O)[C@H](CCCNC(=N)N)NC(=O)[C@H](CCCCN)NC(=O)[C@H](CO)NC(=O)[C@H](CC(=O)O)NC(=O)[C@@H]3CSSC[C@H](NC(=O)[C@H](CCC(=O)O)NC(=O)[C@H](CC(C)C)NC(=O)CNC(=O)[C@H](CCC(=O)O)NC(=O)[C@H](CSSC[C@H](NC(=O)[C@@H](N)Cc4ccc(O)cc4)C(=O)N[C@@H](CCC(N)=O)C(=O)N[C@@H](CCCCN)C(=O)N[C@@H](Cc4c[nH]c5ccccc45)C(=O)N[C@@H](CCSC)C(=O)N[C@@H](Cc4c[nH]c5ccccc45)C(=O)N[C@@H]([C@@H](C)O)C(=O)N3)NC2=O)C(=O)N[C@@H](CCCCN)C(=O)N[C@@H](CC(C)C)C(=O)N[C@@H](Cc2cccc3ccccc23)C(=O)N1)C(N)=O [compound 218]?
A: Nav1.4/Nav1.7: 434; Nav1.5/Nav1.7: 833

Q: CCCC[C@@H]1NC(=O)[C@H](Cc2c[nH]c3ccccc23)NC(=O)[C@H](CCCCN)NC(=O)[C@H](CCC(N)=O)NC(=O)[C@@H](NC(=O)[C@H](Cc2ccc(O)cc2)NC(=O)[C@@H](N)CC#N)CSSC[C@@H]2NC(=O)[C@@H]3CSSC[C@@H](C(=O)N[C@@H](CCCNC(=N)N)C(=O)N[C@@H](CCCCN)C(=O)N[C@@H](CCC(=O)O)C(=O)N[C@H](C(N)=O)[C@@H](C)CC)NC(=O)[C@H](Cc4c[nH]c5ccccc45)NC(=O)[C@H](CC(C)C)NC(=O)[C@H](CCCCN)NC(=O)[C@H](CSSC[C@H](NC(=O)[C@H]([C@@H](C)O)NC(=O)[C@H](Cc4c[nH]c5ccccc45)NC1=O)C(=O)N[C@@H](CC(=O)O)C(=O)N[C@@H](CO)C(=O)N[C@@H](CCCCN)C(=O)N[C@@H](CCCNC(=N)N)C(=O)N[C@@H](C)C(=O)N3)NC(=O)[C@H](CCCNC(=N)N)NC(=O)[C@H](CC(C)C)NC(=O)CNC(=O)[C@H](CCCCNC(=O)CCOCCOCCOCCOCCOCCOCCOCCOCCOCCOCCOCCOCCN)NC2=O [compound 456] was tested. Which Nav1.4/Nav1.7 did it give?
A: 68

Q: And the Nav1.5/Nav1.7?
A: 967

same assay, conditions: read-out: Nav1.7 PX IC50

Q: “[Phe6,Atz(500 Da EtO-PEG*-[Phe6,Atz13*]GpTx-1(1-34)1)13]GpTx-1(1-34) [Homodimeric Conjugate No. 4]” was tested. Which IC50 did it give?
A: 19 nM
